Laboratory results published in publication PMC7179259, “Safety, Tolerability, Pharmacokinetics, and Antimalarial Activity of the Novel Plasmodium Phosphatidylinositol 4-Kinase Inhibitor MMV390048 in Healthy Volunteers” (Antimicrobial Agents and Chemotherapy, 2020).

How the values were obtained:
[1] = Stability of stock solutions in dimethylsulfoxide; format: physicochemical
From the text: page 28: Determination of MMV390048 from 50 µ L human plasma by LC -MS/MS A method was validated for the quantification of MMV390048 in human plasma, and consisted of a protein precipitation extraction, followed by high performance liquid chromatography with MS/MS detection. MMV390048- d3 was used as the internal standard. Analyte mean extraction yield was approximately 106.5 % (CV% = 6.2). The extraction procedure was followed by liquid chromatographic separation using a Waters Atlantis T3 3 μm, 100 x 2.1 mm analytical column. An isocratic mobile phase containing water:acetonitrile (25:75 [v/v]) was used at a flow-rate of 300 μL/min. The retention times for MMV390048 and MMV390048- d3 were 1.16 min and 1.16 min, respectively. An AB Sciex API 4000 mass spectrometer at unit resolution in the multiple reaction monitoring mode was used to monitor the transition of the protonated precursor ions, 394.145 m/z and 397.148 m/z, to the product ions, 297.0 m/z and 297.0 m/z, for MMV390048 and the internal standard, respectively. Electro -spray ionisation was used for ion production. Accuracy and precision were assessed over three consecutive, independent runs. The calibration curve fits a quadratic (weighted by 1/x) regressions for MMV390048 over the ranges 0.500 –2000 ng/mL, based on peak area ratios. The assay was successfully cross- validated on a second/back- up API 4000 instrument. […]

[2] = Induced blood-stage malaria (IBSM) study: plasma pharmacokinetics; format: in vivo; conditions: human; for AUC(0-t): oral, 20 mg
Method: (ii) IBSM study. The dose of MMV390048 chosen (20 mg) was based on the pharmacokinetic, safety, and tolerability data available from the first-in-human study at the time the IBSM study commenced (when 5- and 20-mg-dose cohorts of the first-in-human study had been completed). This dose was below the estimated single dose required to achieve complete cure calculated from preclinical studies (80 to 100 mg) since recrudescence allows for characterization of the pharmacokinetic/pharmacodynamic relationship between MMV390048 and P. falciparum parasitemia. Subjects were inoculated intravenously on day 0 with erythrocytes infected with ∼1,800 viable chloroquine-sensitive P. falciparum 3D7 parasites ([17]). Fasted (≥8 h) subjects were dosed with MMV390048 when they reached the parasitemia threshold for treatment (∼1,000 parasites ml^−1) and were followed up until the end-of-study visit on day 28.
Blood samples from the three studies were analyzed at the University of Cape Town Division of Clinical Pharmacology Laboratory. MMV390048 was extracted from plasma using a protein precipitation procedure and analyzed using a liquid chromatography-tandem mass spectrometry assay. The precision (total assay coefficients of variation) for MMV390048 during sample analysis was less than 8% at all quality control levels, including the limit of quantification, which was 0.5 ng ml^−1. The full details of the assay are included in the supplemental material.
Noncompartmental pharmacokinetic analysis was performed using Phoenix WinNonlin Pro version 6.3 (Certara L.P., St. Louis, MO, USA) for the first-in-human and the formulation optimization studies, and using R version 3.2.0 for the IBSM study. Pharmacokinetic endpoints were the peak plasma concentration (Cmax), time at which Cmax is reached (Tmax), area under the concentration-time curve from 0 h to infinity (AUC0–inf), elimination half-life (t½), apparent clearance (CL/F), and apparent volume of distribution (Vz/F).

rats = test system: rats; parameters: method as in not given; conditions: preclinical toxicology studies in rats; ref not given; cited from earlier work
[3] = parameters: method as in PMID 28446690; conditions: predicted for humans; cited from earlier work
P. falciparum = test system: P. falciparum; parameters: method as in PMID 28446690; conditions: humanized SCID mice infected with P. falciparum; cited from earlier work
healthy subjects = test: Formulation optimization study: safety; format: in vivo, human; conditions: both tablet formulations
Method: The third study was a formulation optimization study to test two MMV390048 tablet formulations (tartaric acid and Syloid). The formulation optimization study was conducted at Richmond Pharmacology Ltd. (London, United Kingdom) from 17 September to 28 October 2015. This was a phase 1, open-label, single-dose, parallel-group, two-cohort design study.
(iii) Formulation optimization study. Subjects received one of two tablet formulations (formulation A, tartaric acid tablets; formulation B, Syloid tablets; manufactured by Quotient Clinical, United Kingdom) on day 1, after an ≥8-h fasting period, at a dose of 40 mg with 240 ml of water. Subjects were followed up until day 29.
Safety endpoints were the incidence, severity, and relationship to the investigational product (and inoculum for the IBSM study) of observed and self-reported adverse events (AEs), and changes from baseline in physical examination, vital signs, standard electrocardiograms (ECGs), continuous ECGs (first-in-human study only), and laboratory evaluation (hematology, coagulation parameters, hemolysis panel, clinical chemistry, and urinalysis) findings. […] AE severity was evaluated according to the Common Terminology Criteria for Adverse Events version 4.03 ([18]) and the World Health Organization recommendations for grading acute and subacute toxic effects ([19]).

[4] = single oral 20 mg fasted, powder-in-bottle, n = 6, geometric mean (CV %)

Q: With `CS(=O)(=O)c1ccc(-c2cnc(N)c(-c3ccc(C(F)(F)F)nc3)c2)cc1` [MMV390048] as the compound, how does the “stock solution in dimethylsulfoxide stable for” value ([1]; room temperature, 4°C and -20°C) read?
A: 24 h

Q: What about the “stock solution in dimethylsulfoxide stable for” value ([1]; stored at -80°C) of the same compound?
A: 1610 h

Q: And the AUC(0-t) ([2]; the 4 subjects who recrudesced 2 days after treatment)?
A: 6000 to 9000 ng·h/mL

Q: And the AUC(0-t) ([2]; the two subjects who recrudesced 7 days after treatment)?
A: ~12000 ng·h/mL

Q: What about the AUC(0-inf) [2, 4] of the same compound?
A: 15900 ng·h/mL

Q: And the Cmax [2, 4]?
A: 106 ng/mL

Q: What about the Tmax ([2]; single oral 20 mg fasted, powder-in-bottle, n = 6, median (range)) of the same compound?
A: 2 h

Q: And the testicular toxicity (rats)?
A: testicular toxicity was observed

Q: And the “elimination half-life in humans predicted from preclinical studies” value [3]?
A: 90 h

Q: What about the “effective concentration to achieve 90% of the maximal kill rate (EC90)” value (P. falciparum) of the same compound?
A: 0.16 µg/mL

Q: What about the “total AEs reported” value (healthy subjects; 18 subjects) of the same compound?
A: 11

Q: What about the “subjects with AEs” value (healthy subjects; of 18 subjects) of the same compound?
A: 7
